Experimental data from patent US20230123334A1, “AMINO LIPID COMPOUND, PREPARATION METHOD THEREFOR, AND APPLICATION THEREOF” (SHENZHEN SHENXIN BIOTECHNOLOGY CO., LTD., priority 2020, published 2023).

tested on: HEK293 cells; experiment: Preliminary screening as mRNA vectors, EGFP mRNA transfection of HEK293 cells; format: cell-based; details: EGFP mRNA 50 ng per well, 96-well plates; percentage of GFP fluorescent cells relative to total number of cells (Hoechst)
Experimental: Cell line: HEK293 cells (ATCC CRL-1573™)
Medium: DMEM supplemented with 10% fetal bovine serum (Invitrogen)
Screening: cell transfection on 96-well plates
Detection (readout): percentage of the number of GFP fluorescent cells relative to the total number of cells (the total number of cells was determined using nucleus dye Hoechst). Lipofectamine2000 (Invitrogen) was used as the positive control.
Method: the experimental method was basically the same with Example 4, and the mass of EGFP mRNA (TriLink) for transfection was 50 ng per well.

| SMILES | Absolute mRNA transfection efficiency in HEK293 cells [%] |
| --- | --- |
| CCCCCCCCCCCCCCCCCCNc1nc(NCCN(C)C)nc(SCCCCCCCCCC)n1 [Compound D1S10N18] | 4.8 |
| CCCCCCCCCCCSc1nc(NCCCCCC)nc(NCCN(C)C)n1 [Compound D1S11N6] | 4.4 |
| CCCCCCCCCCCSc1nc(NCCCCCCC)nc(NCCN(C)C)n1 [Compound D1S11N7] | 11.7 |
| CCCCCCCCCCCSc1nc(NCCCCCCCC)nc(NCCN(C)C)n1 [Compound D1S11N8] | 13.1 |
| CCCCCCCCCCCSc1nc(NCCCCCCCCC)nc(NCCN(C)C)n1 [Compound D1S11N9] | 14.7 |
| CCCCCCCCCCCNc1nc(NCCN(C)C)nc(SCCCCCCCCCCC)n1 [Compound D1S11N11] | 24.7 |
| CCCCCCCCCCCCNc1nc(NCCN(C)C)nc(SCCCCCCCCCCC)n1 [Compound D1S11N12] | 27.3 |
| CCCCCCCCCCCCCNc1nc(NCCN(C)C)nc(SCCCCCCCCCCC)n1 [Compound D1S11N13] | 12.6 |
| CCCCCCCCCCCCCCCNc1nc(NCCN(C)C)nc(SCCCCCCCCCCC)n1 [Compound D1S11N15] | 6.2 |
| CCCCCCCCCCCCCCCCNc1nc(NCCN(C)C)nc(SCCCCCCCCCCC)n1 [Compound D1S11N16] | 13.0 |
| CCCCCCCCCCCCCCCCCCNc1nc(NCCN(C)C)nc(SCCCCCCCCCCC)n1 [Compound D1S11N18] | 15.4 |
| CCCCCCCCCCCCSc1nc(NCCCCCC)nc(NCCN(C)C)n1 [Compound D1S12N6] | 0.0 |
| CCCCCCCCCCCCSc1nc(NCCCCCCC)nc(NCCN(C)C)n1 [Compound D1S12N7] | 1.5 |
| CCCCCCCCCCCCSc1nc(NCCCCCCCC)nc(NCCN(C)C)n1 [Compound D1S12N8] | 11.3 |
| CCCCCCCCCCCCSc1nc(NCCCCCCCCC)nc(NCCN(C)C)n1 [Compound D1S12N9] | 34.2 |
| CCCCCCCCCCCCSc1nc(NCCCCCCCCCCC)nc(NCCN(C)C)n1 [Compound D1S12N11] | 2.6 |
| CCCCCCCCCCCCNc1nc(NCCN(C)C)nc(SCCCCCCCCCCCC)n1 [Compound D1S12N12] | 1.7 |
| CCCCCCCCCCCCCNc1nc(NCCN(C)C)nc(SCCCCCCCCCCCC)n1 [Compound D1S12N13] | 1.2 |
| CCCCCCCCCCCCCCCNc1nc(NCCN(C)C)nc(SCCCCCCCCCCCC)n1 [Compound D1S12N15] | 0.5 |
| CCCCCCCCCCCCCCCCNc1nc(NCCN(C)C)nc(SCCCCCCCCCCCC)n1 [Compound D1S12N16] | 0.0 |
| CCCCCCCCCCCCCCCCCCNc1nc(NCCN(C)C)nc(SCCCCCCCCCCCC)n1 [Compound D1S12N18] | 0.0 |
| CCCCCCCCCCCCCCSc1nc(NCCCCCC)nc(NCCN(C)C)n1 [Compound D1S14N6] | 29.1 |

| SMILES | Absolute mRNA transfection efficiency in HEK293 cells [%] |
| --- | --- |
| CCCCCCCCCCCCCCSc1nc(NCCCCCCC)nc(NCCN(C)C)n1 [Compound D1S14N7] | 25.7 |
| CCCCCCCCCCCCCCSc1nc(NCCCCCCCC)nc(NCCN(C)C)n1 [Compound D1S14N8] | 56.7 |
| CCCCCCCCCCCCCCSc1nc(NCCCCCCCCC)nc(NCCN(C)C)n1 [Compound D1S14N9] | 39.0 |
| CCCCCCCCCCCCCCSc1nc(NCCCCCCCCCCC)nc(NCCN(C)C)n1 [Compound D1S14N11] | 14.3 |
| CCCCCCCCCCCCCCSc1nc(NCCCCCCCCCCCC)nc(NCCN(C)C)n1 [Compound D1S14N12] | 9.6 |
| CCCCCCCCCCCCCCSc1nc(NCCCCCCCCCCCCC)nc(NCCN(C)C)n1 [Compound D1S14N13] | 6.0 |
| CCCCCCCCCCCCCCCNc1nc(NCCN(C)C)nc(SCCCCCCCCCCCCCC)n1 [Compound D1S14N15] | 1.1 |
| CCCCCCCCCCCCCCCCNc1nc(NCCN(C)C)nc(SCCCCCCCCCCCCCC)n1 [Compound D1S14N16] | 1.8 |
| CCCCCCCCCCCCCCCCCCNc1nc(NCCN(C)C)nc(SCCCCCCCCCCCCCC)n1 [Compound D1S14N18] | 1.8 |
| CCCCCCCCCCCCCCCSc1nc(NCCCCCC)nc(NCCN(C)C)n1 [Compound D1S15N6] | 37.7 |
| CCCCCCCCCCCCCCCSc1nc(NCCCCCCC)nc(NCCN(C)C)n1 [Compound D1S15N7] | 66.1 |
| CCCCCCCCCCCCCCCSc1nc(NCCCCCCCC)nc(NCCN(C)C)n1 [Compound D1S15N8] | 98.3 |
| CCCCCCCCCCCCCCCSc1nc(NCCCCCCCCC)nc(NCCN(C)C)n1 [Compound D1S15N9] | 96.3 |
| CCCCCCCCCCCCCCCSc1nc(NCCCCCCCCCCC)nc(NCCN(C)C)n1 [Compound D1S15N11] | 11.9 |
| CCCCCCCCCCCCCCCSc1nc(NCCCCCCCCCCCC)nc(NCCN(C)C)n1 [Compound D1S15N12] | 4.8 |
| CCCCCCCCCCCCCCCSc1nc(NCCCCCCCCCCCCC)nc(NCCN(C)C)n1 [Compound D1S15N13] | 1.5 |
| CCCCCCCCCCCCCCCNc1nc(NCCN(C)C)nc(SCCCCCCCCCCCCCCC)n1 [Compound D1S15N15] | 0.3 |
| CCCCCCCCCCCCCCCCNc1nc(NCCN(C)C)nc(SCCCCCCCCCCCCCCC)n1 [Compound D1S15N16] | 3.2 |
| CCCCCCCCCCCCCCCCCCNc1nc(NCCN(C)C)nc(SCCCCCCCCCCCCCCC)n1 [Compound D1S15N18] | 3.8 |
| CCCCCCCCCCCCCCCCSc1nc(NCCCCCC)nc(NCCN(C)C)n1 [Compound D1S16N6] | 54.2 |
| CCCCCCCCCCCCCCCCSc1nc(NCCCCCCC)nc(NCCN(C)C)n1 [Compound D1S16N7] | 65.1 |
| CCCCCCCCCCCCCCCCSc1nc(NCCCCCCCC)nc(NCCN(C)C)n1 [Compound D1S16N8] | 40.3 |

| SMILES | Absolute mRNA transfection efficiency in HEK293 cells [%] |
| --- | --- |
| CCCCCCCCCCCCCCCCSc1nc(NCCCCCCCCC)nc(NCCN(C)C)n1 [Compound D1S16N9] | 26.4 |
| CCCCCCCCCCCCCCCCSc1nc(NCCCCCCCCCCC)nc(NCCN(C)C)n1 [Compound D1S16N11] | 19.8 |
| CCCCCCCCCCCCCCCCSc1nc(NCCCCCCCCCCCC)nc(NCCN(C)C)n1 [Compound D1S16N12] | 3.0 |
| CCCCCCCCCCCCCCCCSc1nc(NCCCCCCCCCCCCC)nc(NCCN(C)C)n1 [Compound D1S16N13] | 0.9 |
| CCCCCCCCCCCCCCCCSc1nc(NCCCCCCCCCCCCCCC)nc(NCCN(C)C)n1 [Compound D1S16N15] | 1.4 |
| CCCCCCCCCCCCCCCCNc1nc(NCCN(C)C)nc(SCCCCCCCCCCCCCCCC)n1 [Compound D1S16N16] | 0.9 |
| CCCCCCCCCCCCCCCCCCNc1nc(NCCN(C)C)nc(SCCCCCCCCCCCCCCCC)n1 [Compound D1S16N18] | 0.5 |
| CCCCCCCCCCCCCCCCCCSc1nc(NCCCCCC)nc(NCCN(C)C)n1 [Compound D1S18N6] | 42.6 |
| CCCCCCCCCCCCCCCCCCSc1nc(NCCCCCCC)nc(NCCN(C)C)n1 [Compound D1S18N7] | 63.0 |
| CCCCCCCCCCCCCCCCCCSc1nc(NCCCCCCCC)nc(NCCN(C)C)n1 [Compound D1S18N8] | 38.0 |
| CCCCCCCCCCCCCCCCCCSc1nc(NCCCCCCCCC)nc(NCCN(C)C)n1 [Compound D1S18N9] | 30.3 |
| CCCCCCCCCCCCCCCCCCSc1nc(NCCCCCCCCCCC)nc(NCCN(C)C)n1 [Compound D1S18N11] | 1.3 |
| CCCCCCCCCCCCCCCCCCSc1nc(NCCCCCCCCCCCC)nc(NCCN(C)C)n1 [Compound D1S18N12] | 2.3 |
| CCCCCCCCCCCCCCCCCCSc1nc(NCCCCCCCCCCCCC)nc(NCCN(C)C)n1 [Compound D1S18N13] | 0.2 |
| CCCCCCCCCCCCCCCCCCSc1nc(NCCCCCCCCCCCCCCC)nc(NCCN(C)C)n1 [Compound D1S18N15] | 0.5 |
| CCCCCCCCCCCCCCCCCCSc1nc(NCCCCCCCCCCCCCCCC)nc(NCCN(C)C)n1 [Compound D1S18N16] | 0.1 |
| CCCCCCCCCCCCCCCCCCNc1nc(NCCN(C)C)nc(SCCCCCCCCCCCCCCCCCC)n1 [Compound D1S18N18] | 0.0 |
| CCCCCCNc1nc(NCCN2CCOCC2)nc(SCCCCCC)n1 [Compound D2S6N6] | 0.4 |
| CCCCCCCNc1nc(NCCN2CCOCC2)nc(SCCCCCC)n1 [Compound D2S6N7] | 2.7 |
| CCCCCCCCNc1nc(NCCN2CCOCC2)nc(SCCCCCC)n1 [Compound D2S6N8] | 0.0 |
| CCCCCCCCCNc1nc(NCCN2CCOCC2)nc(SCCCCCC)n1 [Compound D2S6N9] | 0.8 |
| CCCCCCCCCCCNc1nc(NCCN2CCOCC2)nc(SCCCCCC)n1 [Compound D2S6N11] | 0.8 |
